Where “and” joins values, the source holds several entries; their conditions need not be identical. Equal entries are not always repeated. Numbers after ± are expanded uncertainties.

This is an account of results in the NIST ThermoML archive (doi:10.1016/j.fluid.2005.01.002).

One series in a line: activity coefficient (dimensionless); of the first substance listed, at infinite dilution; xn = mol fraction of the nth substance listed. The conditions noted are these: 353.15 K; 101.33 kPa; Liquid; Static method; x1 = 0.
Take `CC(C)=O` [acetone] + CCCC[n+]1ccn(C)c1.O=S(=O)([N-]S(=O)(=O)C(F)(F)F)C(F)(F)F: the activity coefficient was 0.406 ± 0.01.

Turning to `CC(C)=O` [acetone] + CCn1cc[n+](C)c1.O=S(=O)([N-]S(=O)(=O)C(F)(F)F)C(F)(F)F, the activity coefficient came out at 0.438 ± 0.01.

On to `CC(C)=O` [acetone] + COP(=O)([O-])OC.Cn1cc[n+](C)c1, for which the activity coefficient is 0.98 ± 0.01.

As for `CCO` [ethanol] + COP(=O)([O-])OC.Cn1cc[n+](C)c1, the activity coefficient is 0.115 ± 0.01.

For `CO` [methanol] + COP(=O)([O-])OC.Cn1cc[n+](C)c1, the activity coefficient worked out at 0.029 ± 0.01.

In the case of `CC(C)O` [propan-2-ol] + CCCC[n+]1ccn(C)c1.O=S(=O)([N-]S(=O)(=O)C(F)(F)F)C(F)(F)F, the activity coefficient was 1.1 ± 0.01.

For `CC(C)O` [propan-2-ol] + CCn1cc[n+](C)c1.O=S(=O)([N-]S(=O)(=O)C(F)(F)F)C(F)(F)F, the activity coefficient was determined as 1.42 ± 0.02.

With `C1CCOC1` [tetrahydrofuran] + CCn1cc[n+](C)c1.O=S(=O)([N-]S(=O)(=O)C(F)(F)F)C(F)(F)F, the activity coefficient was determined as 0.8 ± 0.01.

Turning to `C1CCOC1` [tetrahydrofuran] + COP(=O)([O-])OC.Cn1cc[n+](C)c1, the activity coefficient came to 3.21 ± 0.05.

Take `O` [water] + CCCC[n+]1ccn(C)c1.O=S(=O)([N-]S(=O)(=O)C(F)(F)F)C(F)(F)F: the activity coefficient is 2.27 ± 0.03.

Regarding `O` [water] + CCn1cc[n+](C)c1.O=S(=O)([N-]S(=O)(=O)C(F)(F)F)C(F)(F)F, the activity coefficient was found to be 2.32 ± 0.04.

As for `O` [water] + COP(=O)([O-])OC.Cn1cc[n+](C)c1, the activity coefficient is 0.028 ± 0.01.

Experiment in the next series: not given
The conditions noted are these: 353.15 K; Liquid.
Turning to `CC(C)=O` [acetone], the “vapor or sublimation pressure” value is 215.16 ± 1.4 kPa and 215.04 ± 1.4 kPa and 216.82 ± 5.5 kPa.

In the case of `CCO` [ethanol], the “vapor or sublimation pressure” value came to 109.08 ± 0.72 kPa.

`CO` [methanol]: the “vapor or sublimation pressure” value is 182.61 ± 1.2 kPa.

`CC(C)O` [propan-2-ol]: the “vapor or sublimation pressure” value was 92.26 ± 0.62 kPa and 91.99 ± 0.61 kPa.

For `C1CCOC1` [tetrahydrofuran], the “vapor or sublimation pressure” value is 155.92 ± 1 kPa and 157.86 ± 1 kPa.

Consider `O` [water], for which the “vapor or sublimation pressure” value was 47.37 ± 0.58 kPa and 47.82 ± 0.58 kPa.
